Laboratory results published in patent publication US20190364899A1, “MICROBIOCIDAL OXADIAZOLE DERIVATIVES” (SYNGENTA PARTICIPATIONS AG, priority 2015, published 2019).
Like-named read-outs stand apart in the source and are kept apart here.

Columns and labels:
[1] = system: Puccinia recondita f, Sp. Tritici; test: Fungicidal activity against Puccinia recondita f. sp. tritici / wheat / leaf disc preventative (brown rust); format: in vivo; conditions: foliar, 200 ppm in the applied formulation, wheat leaf segments cv. Kanzler, inoculated 1 day after application, compared to untreated, read-out: disease control
Protocol: (§1) General examples of leaf disk tests in well plates: Leaf disks or leaf segments of various plant species are cut from plants grown in a greenhouse. The cut leaf disks or segments are placed in multiwell plates (24-well format) onto water agar. The leaf disks are sprayed with a test solution before (preventative) or after (curative) inoculation. Compounds to be tested are prepared as DMSO solutions (max. 10 mg/ml) which are diluted to the appropriate concentration with 0.025% Tween20 just before spraying. The inoculated leaf disks or segments are incubated under defined conditions (temperature, relative humidity, light, etc.) according to the respective test system. A single evaluation of disease level is carried out 3 to 14 days after inoculation, depending on the pathosystem. Percent disease control relative to the untreated check leaf disks or segments is then calculated. General examples of liquid culture tests in well plates: Mycelia fragments or conidia suspensions of a fungus prepared either freshly from liquid cultures of the fungus or from cryogenic storage, are directly mixed into nutrient broth. DMSO solutions of the test compound (max. 10 mg/ml) are diluted with 0.025% Tween20 by a factor of 50 and 10 μl of this solution is pipetted into a microtiter plate (96-well format). The nutrient broth containing the fungal spores/mycelia fragments is then added to give an end concentration of the tested compound. The test plates are incubated in the dark at 24° C. and 96% relative humidity. The inhibition of fungal growth is determined photometrically after 2 to 7 days, depending on the pathosystem, and percent antifungal activity relative to the untreated check is calculated.
Example 1: Fungicidal Activity Against Puccinia recondita f, Sp. Tritici/Wheat/Leaf Disc Preventative (Brown Rust)
Wheat leaf segments cv. Kanzler were placed on agar in multiwell plates (24-well format) and sprayed with the formulated test compound diluted in water. The leaf disks were inoculated with a spore suspension of the fungus 1 day after application. The inoculated leaf segments were incubated at 19° C. and 75% relative humidity (rh) under a light regime of 12 hours light/12 hours darkness in a climate cabinet and the activity of a compound was assessed as percent disease control compared to untreated when an appropriate level of disease damage appears in untreated check leaf segments (7 to 9 days after application).
(§2) The following compounds at 200 ppm in the applied formulation give at least 80% disease control in this test when compared to untreated control leaf disks under the same conditions, which show extensive disease development.

[2] = system: Glomerella Lagenarium (Colletotrichum Lagenarium); test: Fungicidal activity against Glomerella lagenarium (Colletotrichum lagenarium) liquid culture / cucumber / preventative (anthracnose); format: cell-based; conditions: Colletotrichum orbiculare, read-out: disease control
Protocol: as §1
Example 4: Fungicidal Activity Against Glomerella Lagenarium (Colletotrichum Lagenarium) Liquid Culture/Cucumber/Preventative (Anthracnose)
Conidia of the fungus from cryogenic storage are directly mixed into nutrient broth (PDB—potato dextrose broth). After placing a (DMSO) solution of test compound into a microtiter plate (96-well format), the nutrient broth containing the fungal spores is added. The test plates are incubated at 24° C. and the inhibition of growth is measured photometrically 3 to 4 days after application.
The following compounds at 20 ppm in the applied formulation give at least 80% disease control in this test when compared to untreated control under the same conditions, which show extensive disease development.

[3] = system: Puccinia Recondite f. Sp. Tritici; test: Fungicidal activity against Puccinia recondita f. sp. tritici / wheat / leaf disc curative (brown rust); format: in vivo; conditions: foliar, 24 h, 200 ppm in the applied formulation, wheat leaf segments cv. Kanzler, applied 1 day after inoculation, compared to untreated, read-out: disease control
Protocol: as §1
Example 2: Fungicidal Activity Against Puccinia Recondite f. Sp. Tritici Wheat/Leaf Disc Curative (Brown Rust)
Wheat leaf segments cv. Kanzler are placed on agar in multiwell plates (24-well format). The leaf segments are then inoculated with a spore suspension of the fungus. Plates were stored in darkness at 19° C. and 75% relative humidity. The formulated test compound diluted in water was applied 1 day after inoculation. The leaf segments were incubated at 19° C. and 75% relative humidity under a light regime of 12 hours light/12 hours darkness in a climate cabinet and the activity of a compound was assessed as percent disease control compared to untreated when an appropriate level of disease damage appears in untreated check leaf segments (6 to 8 days after application).
as §2

Phakopsora pachyrhizi = test: Fungicidal activity against Phakopsora pachyrhizi / soybean / leaf disc preventative (Asian soybean rust); format: in vivo; conditions: foliar, 200 ppm in the applied formulation, soybean leaf disks, inoculated one day after application, compared to untreated, read-out: disease control
Protocol: as §1
Example 3: Fungicidal Activity Against Phakopsora pachyrhizi/Soybean/Leaf Disc Preventative (Asian Soybean Rust)
Soybean leaf disks are placed on water agar in multiwell plates (24-well format) and sprayed with the formulated test compound diluted in water. One day after application leaf discs are inoculated by spraying a spore suspension on the lower leaf surface. After an incubation period in a climate cabinet of 24-36 hours in darkness at 20° C. and 75% rh leaf disc are kept at 20° C. with 12 h light/day and 75% rh. The activity of a compound is assessed as percent disease control compared to untreated when an appropriate level of disease damage appears in untreated check leaf disks (12 to 14 days after application).
as §2

[4] = 20 ppm in the applied formulation, liquid culture in PDB, growth inhibition measured photometrically 3 to 4 days after application, compared to untreated

O=C(NCc1ccc(-c2noc(C(F)(F)F)n2)cn1)NCc1ccco1 [Compound 2.16]
pest or weed control at 200 ppm [1]: ≥ 80%
inhibition of growth at 20 ppm [2, 4]: ≥ 80%

C#CCN(C(=O)NCc1ccc(-c2noc(C(F)(F)F)n2)cc1)C1CC1 [Compound 2.30, 1-cyclopropyl-1-prop-2-ynyl-3-[[4-[5-(trifluoromethyl)-1,2,4-oxadiazol-3-yl]phenyl]methyl]urea]
pest or weed control at 200 ppm [3]: ≥ 80%
pest or weed control at 200 ppm (Phakopsora pachyrhizi): ≥ 80%
pest or weed control at 200 ppm [1]: ≥ 80%
inhibition of growth at 20 ppm [2, 4]: ≥ 80%

O=C(NCc1ccc(-c2noc(C(F)(F)F)n2)cc1)NC1CCC1 [Compound 2.9, 1-cyclobutyl-3-[[4-[5-(trifluoromethyl)-1,2,4-oxadiazol-3-yl]phenyl]methyl]urea]
pest or weed control at 200 ppm [1]: ≥ 80%
inhibition of growth at 20 ppm [2, 4]: ≥ 80%

CC1(NC(=O)NCc2ccc(-c3noc(C(F)(F)F)n3)cc2)CC1 [Compound 2.25, 1-(1-methylcyclopropyl)-3-[[4-[5-(trifluoromethyl)-1,2,4-oxadiazol-3-yl]phenyl]methyl]urea]
pest or weed control at 200 ppm (Phakopsora pachyrhizi): ≥ 80%

O=C(NCc1ccc(-c2noc(C(F)(F)F)n2)cn1)Nc1ccccc1Cl [Compound 2.19, 1-(2-chlorophenyl)-3-[[5-[5-(trifluoromethyl)-1,2,4-oxadiazol-3-yl]-2-pyridyl]methyl]urea]
pest or weed control at 200 ppm (Phakopsora pachyrhizi): ≥ 80%
pest or weed control at 200 ppm [1]: ≥ 80%
inhibition of growth at 20 ppm [2, 4]: ≥ 80%

O=C(NCc1ccccc1)NCc1ccc(-c2noc(C(F)(F)F)n2)cc1 [Compound 2.8, 1-benzyl-3-[[4-[5-(trifluoromethyl)-1,2,4-oxadiazol-3-yl]phenyl]methyl]urea]
pest or weed control at 200 ppm [1]: ≥ 80%
inhibition of growth at 20 ppm [2, 4]: ≥ 80%

O=C(NCc1ccc(-c2noc(C(F)(F)F)n2)cc1)N1CCCO1 [Compound 3.5, N-[[4-[5-(trifluoromethyl)-l,2,4-oxadiazol-3-yl]phenyl]methyl] isoxazolidine-2-carboxamide]
pest or weed control at 200 ppm [3]: ≥ 80%
pest or weed control at 200 ppm (Phakopsora pachyrhizi): ≥ 80%
pest or weed control at 200 ppm [1]: ≥ 80%
inhibition of growth at 20 ppm [2, 4]: ≥ 80%

O=C(NCc1ccc(-c2noc(C(F)(F)F)n2)cn1)Nc1ccc(F)cc1 [Compound 2.13, 1-(4-fluorophenyl)-3-[[5-[5-(trifluoromethyl)-1,2,4-oxadiazol-3-yl]-2-pyridyl]methyl]urea]
pest or weed control at 200 ppm [1]: ≥ 80%

O=C(NCc1ccc(-c2noc(C(F)(F)F)n2)cc1)NC1CCCCC1 [Compound 2.6, 1-cyclohexyl-3-[[4-[5-(trifluoromethyl)-1,2,4-oxadiazol-3-yl]phenyl]methyl]urea]
pest or weed control at 200 ppm (Phakopsora pachyrhizi): ≥ 80%

CCN(C(=O)NCc1ccc(-c2noc(C(F)(F)F)n2)cc1)C1CC1 [Compound 2.27, 1-cyclopropyl-1-ethyl-3-[[4-[5-(trifluoromethyl)-1,2,4-oxadiazol-3-yl]phenyl]methyl]urea]
pest or weed control at 200 ppm [3]: ≥ 80%
pest or weed control at 200 ppm (Phakopsora pachyrhizi): ≥ 80%
pest or weed control at 200 ppm [1]: ≥ 80%
inhibition of growth at 20 ppm [2, 4]: ≥ 80%

O=C(NCc1ccc(-c2noc(C(F)(F)F)n2)cc1)NC1CCCC1 [Compound 2.10, 1-cyclopentyl-3-[[4-[5-(trifluoromethyl)-1,2,4-oxadiazol-3-yl]phenyl]methyl]urea]
pest or weed control at 200 ppm [1]: ≥ 80%
inhibition of growth at 20 ppm [2, 4]: ≥ 80%

O=C(NCc1ccc(-c2noc(C(F)(F)F)n2)cc1)OCc1ccccc1 [Compound 1.4, benzyl N-[[4-[5-(trifluoromethyl)-1,2,4-oxadiazol-3-yl]phenyl]methyl] carbamate]
pest or weed control at 200 ppm [1]: ≥ 80%
inhibition of growth at 20 ppm [2, 4]: ≥ 80%

O=C(NCc1ccc(-c2noc(C(F)(F)F)n2)cn1)Oc1ccccc1 [Compound 1.5, phenyl N-[[5-[5-(trifluoromethyl)-1,2,4-oxadiazol-3-yl)-2-pyridyl]methyl] carbamate]
inhibition of growth at 20 ppm [2]: ≥ 80%

O=C(NCc1ccc(-c2noc(C(F)(F)F)n2)cn1)Nc1ccccc1 [Compound 2.5, 1-phenyl-3-[[5-[5-(trifluoromethyl)-1,2,4-oxadiazol-3-yl]-2-pyridyl]methyl]urea]
pest or weed control at 200 ppm [1]: ≥ 80%
inhibition of growth at 20 ppm [2, 4]: ≥ 80%

O=C(NCc1ccc(-c2noc(C(F)(F)F)n2)cn1)Nc1ccc(Cl)cc1 [Compound 2.15, 1-(4-chlorophenyl)-3-[[5-[5-(trifluoromethyl)-1,2,4-oxadiazol-3-yl]-2-pyridyl]methyl]urea]
pest or weed control at 200 ppm [1]: ≥ 80%
inhibition of growth at 20 ppm [2, 4]: ≥ 80%

N#CC1(NC(=O)NCc2ccc(-c3noc(C(F)(F)F)n3)cc2)CC1 [Compound 2.24, 1-(1-cyanocyclopropyl)-3-[[4-[5-(trifluoromethyl)-1,2,4-oxadiazol-3-yl]phenyl]methyl]urea]
pest or weed control at 200 ppm [3]: ≥ 80%
pest or weed control at 200 ppm (Phakopsora pachyrhizi): ≥ 80%
pest or weed control at 200 ppm [1]: ≥ 80%

CCN(CC1CC1)C(=O)NCc1ccc(-c2noc(C(F)(F)F)n2)cc1 [Compound 2.29, 1-(cyclopropylmethyl)-l-ethyl-3-[[4-[5-(trifluoromethyl)-1,2,4-oxadiazol-3-yl]phenyl]methyl]urea]
pest or weed control at 200 ppm (Phakopsora pachyrhizi): ≥ 80%
pest or weed control at 200 ppm [1]: ≥ 80%
inhibition of growth at 20 ppm [2, 4]: ≥ 80%

O=C(NCc1ccc(-c2noc(C(F)(F)F)n2)cn1)Nc1ccccc1F [Compound 2.18, 1-(2-fluorophenyl)-3-[[5-[5-(trifluoromethyl)-1,2,4-oxadiazol-3-yl]-2-pyridyl]methyl]urea]
pest or weed control at 200 ppm [1]: ≥ 80%
inhibition of growth at 20 ppm [2, 4]: ≥ 80%

O=C(NCc1ccc(-c2noc(C(F)(F)F)n2)cc1)Nc1ccccc1 [Compound 2.7, 1-phenyl-3-[[4-[5-(trifluoromethyl)-1,2,4-oxadiazol-3-yl]phenyl]methyl]urea]
pest or weed control at 200 ppm (Phakopsora pachyrhizi): ≥ 80%
pest or weed control at 200 ppm [1]: ≥ 80%
inhibition of growth at 20 ppm [2, 4]: ≥ 80%

O=C(NCc1ccccc1)NCc1ccc(-c2noc(C(F)(F)F)n2)cn1 [Compound 2.12, 1-benzyl-3-[[5-[5-(trifluoromethyl)-1,2,4-oxadiazol-3-yl]-2-pyridyl]methyl]urea]
pest or weed control at 200 ppm [1]: ≥ 80%
inhibition of growth at 20 ppm [2, 4]: ≥ 80%

O=C(NCc1ccc(-c2noc(C(F)(F)F)n2)cn1)OCc1ccccc1 [Compound 1.6, benzyl N-[[5-[5-(trifluoromethyl)-l,2,4-oxadiazol-3-yl]-2-pyridyl]methyl] carbamate]
pest or weed control at 200 ppm [3]: ≥ 80%
pest or weed control at 200 ppm [1]: ≥ 80%
inhibition of growth at 20 ppm [2, 4]: ≥ 80%

O=C(NCc1ccc(-c2noc(C(F)(F)F)n2)cc1)NCc1ccco1 [Compound 2.11, 1-(2-furylmethyl)-3-[[4-[5-(trifluoromethyl)-l,2,4-oxadiazol-3-yl]phenyl]methyl]urea]
inhibition of growth at 20 ppm [2, 4]: ≥ 80%

O=C(NCc1ccc(-c2noc(C(F)(F)F)n2)cc1)NC1COC1 [Compound 2.23, 1-(oxetan-3-yl)-3-[[4-[5-(trifluoromethyl)-1,2,4-oxadiazol-3-yl]phenyl]methyl]urea]
pest or weed control at 200 ppm (Phakopsora pachyrhizi): ≥ 80%
pest or weed control at 200 ppm [1]: ≥ 80%
